US12528778B2, “Microbiocidal derivatives” (SYNGENTA CROP PROTECTION AG, priority 2019, dated 2026)

What was measured:
[1] = tested on: Monographella nivalis (Microdochium nivale); assay: Monographella nivalis (Microdochium nivale) / liquid culture (foot rot cereals); type: cell-based; details: PDB liquid culture, 24° C., growth inhibition determined photometrically 4-5 days after application, vs untreated control
Experimental: (§1) Example B5: Monographella nivalis (Microdochium nivale)/Liquid Culture (Foot Rot Cereals) Conidia of the fungus from cryogenic storage are directly mixed into nutrient broth (PDB potato dextrose broth). After placing a (DMSO) solution of test compound into a microtiter plate (96-well format), the nutrient broth containing the fungal spores is added. The test plates are incubated at 24° C. and the inhibition of growth is determined photometrically 4-5 days after application. […] […]-49, and P-50.

[2] = tested on: Mycosphaerella graminicola (Septoria tritici); assay: Mycosphaerella graminicola (Septoria tritici) / liquid culture (Septoria blotch); type: cell-based; details: Zymoseptoria tritici, PDB liquid culture, 24° C., growth inhibition determined photometrically 4-5 days after application, vs untreated control
Experimental: Example B12: Mycosphaerella graminicola (Septoria tritici)/Liquid Culture (Septoria Blotch) Conidia of the fungus from cryogenic storage are directly mixed into nutrient broth (PDB potato dextrose broth). After placing a (DMSO) solution of test compound into a microtiter plate (96-well format), the nutrient broth containing the fungal spores is added. The test plates are incubated at 24° C. and the inhibition of growth is determined photometrically 4-5 days after application. […] […]-48, and P-49.

[3] = tested on: Glomerella lagenarium (Colletotrichum lagenarium); assay: Glomerella lagenarium (Colletotrichum lagenarium) / liquid culture (anthracnose); type: cell-based; details: Colletotrichum orbiculare, PDB liquid culture, 24° C., growth inhibition measured photometrically 3-4 days after application, vs untreated control
Experimental: as §1, with “B2: Glomerella lagenarium (Colletotrichum lagenarium)/Liquid” for “B5: Monographella nivalis (Microdochium nivale)/Liquid”, “(Anthracnose)” for “(Foot Rot Cereals)”, “measured” for “determined”, “3-4” for “4-5”

[4] = tested on: Magnaporthe grisea (Pyricularia oryzae); assay: whole plant or invertebrate; type: in vivo; details: foliar, read-out: control of Magnaporthe grisea
[5] = tested on: Blumeria graminis f. sp. tritici (Erysiphe graminis f. sp. tritici); assay: Blumeria graminis f. sp. tritici / wheat / leaf disc preventative (powdery mildew on wheat); type: in vivo; details: foliar, wheat leaf segments cv. Kanzler, inoculated 1 day after application, assessed 6-8 days after application, vs untreated control
Experimental: Example B3: Blumeria graminis f. sp. tritici (Erysiphe graminis f. so. tritici)/Wheat/Leaf Disc Preventative (Powdery Mildew on Wheat) Wheat leaf segments cv. Kanzler are placed on agar in a multiwell plate (24-well format) and sprayed with the formulated test compound diluted in water. The leaf disks are inoculated by shaking powdery mildew infected plants above the test plates 1 day after application. The inoculated leaf disks are incubated at 20°° C. and 60% rh under a light regime of 24 h darkness followed by 12 h light/12 h darkness in a climate chamber and the activity of a compound is assessed as percent disease control compared to untreated when an appropriate level of disease damage appears on untreated check leaf segments (6-8 days after application). […]-45, and P-50.

In the case of COc1ncc(NC2CCC2)nc1C(=O)NC1CCC1(C)C (stereo not shown) [Compound P-2, 6-(cyclobutylamino)-N-(2,2-dimethylcyclobutyl)-3-methoxy-pyrazine-2-carboxamide], the inhibition of growth at 20 ppm [1] is reported as ≥ 80%, the inhibition of growth at 20 ppm [2] is reported as ≥ 80% and the inhibition of growth at 20 ppm [3] is reported as ≥ 80%.

For COc1ncc(NC2CC2)nc1C(=O)NC1CCC1(C)C (stereo not shown) [Compound P-3, 6-(cyclopropylamino)-N-(2,2-dimethylcyclobutyl)-3-methoxy-pyrazine-2-carboxamide], the inhibition of growth at 20 ppm [1] was ≥ 80% and the inhibition of growth at 20 ppm [3] was ≥ 80%.

COc1ncc(Nc2cc(F)cc(F)c2)nc1C(=O)NC1CCN(c2cccc(OC(F)(F)F)c2)C1=O (stereo not shown) [Compound P-6, 6-(3,5-difluoroanilino)-3-methoxy-N-[2-oxo-1-[3-(trifluoromethoxy)phenyl]pyrrolidin-3-yl]pyrazine-2-carboxamide] was tested, and the inhibition of growth at 20 ppm [1] was ≥ 80%, the inhibition of growth at 20 ppm [3] was ≥ 80% and the pest or weed control at 200 ppm [4] was ≥ 80%.

With COc1ncc(Nc2cc(F)cc(F)c2)nc1C(=O)NC1(c2ccccn2)CC1 [Compound P-7, 6-(3,5-difluoroanilino)-3-methoxy-N-[1-(2-pyridyl)cyclopropyl] pyrazine-2-carboxamide] the inhibition of growth at 20 ppm [1] was ≥ 80%.

COc1ncc(NCC(C)(C)O)nc1C(=O)NC1CCC1(C)C (stereo not shown) [Compound P-8, N-(2,2-dimethylcyclobutyl)-6-[(2-hydroxy-2-methyl-propyl)amino]-3-methoxy-pyrazine-2-carboxamide] was tested, and the inhibition of growth at 20 ppm [1] was ≥ 80%, the pest or weed control at 200 ppm [5] was ≥ 80% and the inhibition of growth at 20 ppm [3] was ≥ 80%.

With COc1ncc(Nc2cnsc2)nc1C(=O)NCCc1ccc(OC(F)(F)F)cc1 [Compound P-10] the inhibition of growth at 20 ppm [1] was ≥ 80% and the inhibition of growth at 20 ppm [3] was ≥ 80%.

In the case of COc1ncc(Nc2cnsc2)nc1C(=O)NCC1(C(F)(F)F)CC1 [Compound P-11], the inhibition of growth at 20 ppm [1] is reported as ≥ 80%, the inhibition of growth at 20 ppm [2] is reported as ≥ 80% and the inhibition of growth at 20 ppm [3] is reported as ≥ 80%.

COc1ncc(Nc2cnsc2)nc1C(=O)NCc1cccc2c1OC(F)(F)O2 [Compound P-12, N-[(2,2-difluoro-1,3-benzodioxol-4-yl)methyl]-6-(isothiazol-4-ylamino)-3-methoxy-pyrazine-2-carboxamide] was tested, and the inhibition of growth at 20 ppm [1] was ≥ 80%, the inhibition of growth at 20 ppm [2] was ≥ 80% and the inhibition of growth at 20 ppm [3] was ≥ 80%.

COc1ncc(Nc2cnsc2)nc1C(=O)NC1CCc2ccc(C(F)(F)F)cc21 (stereo not shown) [Compound P-14, 6-(isothiazol-4-ylamino)-3-methoxy-N-[6-(trifluoromethyl)indan-1-yl]pyrazine-2-carboxamide] was tested, and the inhibition of growth at 20 ppm [1] was ≥ 80%, the inhibition of growth at 20 ppm [2] was ≥ 80% and the inhibition of growth at 20 ppm [3] was ≥ 80%. For the same compound, the pest or weed control at 200 ppm [4] was ≥ 80%.

For COc1ncc(Nc2cnsc2)nc1C(=O)NC1CCc2cc(C(F)(F)F)ccc21 (stereo not shown) [Compound P-15, 6-(isothiazol-4-ylamino)-3-methoxy-N-[5-(trifluoromethyl)indan-1-yl]pyrazine-2-carboxamide], the inhibition of growth at 20 ppm [1] was ≥ 80%, the inhibition of growth at 20 ppm [2] was ≥ 80% and the inhibition of growth at 20 ppm [3] was ≥ 80%.

With CCON=C(CNC(=O)c1nc(Nc2cc(F)cc(F)c2)cnc1OC)c1ncc(Cl)cc1Cl [Compound P-17, N-[2-(3,5-dichloro-2-pyridyl)-2-ethoxyimino-ethyl]-6-(3,5-difluoroanilino)-3-methoxy-pyrazine-2-carboxamide] the inhibition of growth at 20 ppm [1] was ≥ 80% and the inhibition of growth at 20 ppm [3] was ≥ 80%.

With COc1ncc(Nc2cc(F)cc(F)c2)nc1C(=O)NCCc1ccc(OC(F)(F)F)cc1 [Compound P-18, 6-(3,5-difluoroanilino)-3-methoxy-N-[2-[4-(trifluoromethoxy)phenyl]ethyl]pyrazine-2-carboxamide] the inhibition of growth at 20 ppm [1] was ≥ 80% and the inhibition of growth at 20 ppm [3] was ≥ 80%.

COc1ncc(Nc2cc(F)cc(F)c2)nc1C(=O)NCC1(c2ccc(C(F)(F)F)cn2)CC1 [Compound P-19, 6-(3,5-difluoroanilino)-3-methoxy-N-[[1-[5-(trifluoromethyl)-2-pyridyl]cyclopropyl]methyl]pyrazine-2-carboxamide] was tested, and the inhibition of growth at 20 ppm [1] was ≥ 80%, the inhibition of growth at 20 ppm [3] was ≥ 80% and the pest or weed control at 200 ppm [4] was ≥ 80%.

For COc1ncc(Nc2cc(F)cc(F)c2)nc1C(=O)NCc1c(Cl)cncc1Cl [Compound P-23, N-[(3.5-dichloro-4-pyridyl)methyl]-6-(3,5-difluoroanilino)-3-methoxy-pyrazine-2-carboxamide], the inhibition of growth at 20 ppm [3] was ≥ 80% and the pest or weed control at 200 ppm [4] was ≥ 80%.

For COc1ncc(Nc2cc(F)cc(F)c2)nc1C(=O)NCC1COc2ccccc21 (stereo not shown) [Compound P-26, 6-(3,5-difluoroanilino)-N-(2,3-dihydrobenzofuran-3-yimethyl)-3-methoxy-pyrazine-2-carboxamide], the inhibition of growth at 20 ppm [3] was ≥ 80% and the pest or weed control at 200 ppm [4] was ≥ 80%.

In the case of COc1ncc(Nc2cc(F)cc(F)c2)nc1C(=O)NCc1cccc2ccnn12 [Compound P-27], the inhibition of growth at 20 ppm [3] is reported as ≥ 80%.

COc1ncc(Nc2cc(F)cc(F)c2)nc1C(=O)NC1CCc2ccc(C(F)(F)F)cc21 (stereo not shown) [Compound P-31, 6-(3,5-difluoroanilino)-3-methoxy-N-[6-(trifluoromethyl)indan-1-yl]pyrazine-2-carboxamide] was tested, and the inhibition of growth at 20 ppm [2] was ≥ 80% and the inhibition of growth at 20 ppm [3] was ≥ 80%.

For COc1ncc(Nc2cc(F)cc(F)c2)nc1C(=O)NC1CCc2cc(C(F)(F)F)ccc21 (stereo not shown) [Compound P-32, 6-(3,5-difluoroanilino)-3-methoxy-N-[5-(trifluoromethyl)indan-1-yl]pyrazine-2-carboxamide], the inhibition of growth at 20 ppm [1] was ≥ 80%, the inhibition of growth at 20 ppm [2] was ≥ 80% and the inhibition of growth at 20 ppm [3] was ≥ 80%.

CCON=C(CNC(=O)c1nc(Nc2cc(F)nc(F)c2)cnc1OC)c1ncc(Cl)cc1Cl [Compound P-33, N-[2-(3,5-dichloro-2-pyridyl)-2-ethoxyimino-ethyl]-6-[(2,6-difluoro-4-pyridyl)amino]-3-methoxy-pyrazine-2-carboxamide] was tested, and the inhibition of growth at 20 ppm [3] was ≥ 80%.

In the case of COc1ncc(Nc2cc(F)nc(F)c2)nc1C(=O)NCC1(C(F)(F)F)CC1 [Compound P-35, 6-[(2,6-difluoro-4-pyridyl)amino]-3-methoxy-N-[[1-(trifluoromethyl)cyclopropyl]methyl] pyrazine-2-carboxamide], the pest or weed control at 200 ppm [5] is reported as ≥ 80%, the inhibition of growth at 20 ppm [3] is reported as ≥ 80% and the pest or weed control at 200 ppm [4] is reported as ≥ 80%.

With COc1ncc(Nc2cc(F)nc(F)c2)nc1C(=O)NCc1ccc(Oc2ccccc2)cc1 [Compound P-36, 6-[(2,6-difluoro-4-pyridyl)amino]-3-methoxy-N-[(4-phenoxyphenyl)methyl]pyrazine-2-carboxamide] the inhibition of growth at 20 ppm [3] was ≥ 80% and the pest or weed control at 200 ppm [4] was ≥ 80%.

COc1ncc(Nc2cnsc2)nc1C(=O)NC1CCC1(C)C (stereo not shown) [Compound P-42, (isothiazol-4-ylamino)-N-(2,2-dimethylcyclobutyl)-6-3-methoxy-pyrazine-2-carboxamide] was tested, and the inhibition of growth at 20 ppm [1] was ≥ 80%, the inhibition of growth at 20 ppm [2] was ≥ 80% and the pest or weed control at 200 ppm [4] was ≥ 80%.

With CC1(C)CCC1NC(=O)c1cncc(Nc2cc(F)nc(F)c2)n1 (stereo not shown) [Compound P-46, 6-[(2,6-difluoro-4-pyridyl)amino]-N-(2,2-dimethylcyclobutyl) pyrazine-2-carboxamide] the inhibition of growth at 20 ppm [1] was ≥ 80%, the inhibition of growth at 20 ppm [2] was ≥ 80% and the inhibition of growth at 20 ppm [3] was ≥ 80%.

Cc1ncc(Nc2cc(F)cc(F)c2)nc1C(=O)NC1CCC1(C)C (stereo not shown) [Compound P-47, 6-(3,5-difluoroanilino)-N-(2,2-dimethylcyclobutyl)-3-methyl-pyrazine-2-carboxamide] was tested, and the inhibition of growth at 20 ppm [1] was ≥ 80%, the inhibition of growth at 20 ppm [3] was ≥ 80% and the pest or weed control at 200 ppm [4] was ≥ 80%.

CC1(NC(=O)c2cncc(Nc3cc(F)nc(F)c3)n2)CCCC1 [Compound P-49, 6-[(2,6-difluoro-4-pyridyl)amino]-N-(1-methylcyclopentyl) pyrazine-2-carboxamide] was tested, and the inhibition of growth at 20 ppm [1] was ≥ 80%, the inhibition of growth at 20 ppm [2] was ≥ 80% and the inhibition of growth at 20 ppm [3] was ≥ 80%. For the same compound, the pest or weed control at 200 ppm [4] was ≥ 80%.

Cc1ncc(Nc2cc(F)nc(F)c2)nc1C(=O)NC1CCC1(C)C (stereo not shown) [Compound P-50, 6-[(2,6-difluoro-4-pyridyl)amino]-N-(2,2-dimethylcyclobutyl)-3-methyl-pyrazine-2-carboxamide] was tested, and the inhibition of growth at 20 ppm [1] was ≥ 80%, the pest or weed control at 200 ppm [5] was ≥ 80% and the inhibition of growth at 20 ppm [3] was ≥ 80%. The pest or weed control at 200 ppm [4] was ≥ 80%.
